The values below come from patent US11634423B2, “Substituted pyrazolo[1,5-a]pyrimidines as inhibitors of interferon signaling” (Eli Lilly and Company, priority 2020, dated 2023).

Assay [1] has as its target T1, pseudokinase domain (JH2) of human TYK2 (Homo sapiens, UniProt P29597).
T1 construct: The pseudokinase domain (JH2) of human JAK; made in house
Kind of assay: TYK2-JH2 Tracer Binding Assay. Particulars: TR-FRET tracer displacement, His-tagged TYK2-JH2 0.200 nM, Tracer 2.00 nM, 30 minutes. From the text: The pseudokinase domain (JH2) of human JAK (Janus family of cytoplasmic tyrosine kinases) family tyrosine kinase 2 (TYK2) (Genbank NP_003322) with an N-terminal His6 tag is expressed in baculovirus and purified by HisPur Ni-NTA affinity and Superdex 200 size-exclusion chromatography. The compound prepared in Preparation 17, a conjugate of Alexa Fluor 647 dye (Thermo Fisher Scientific) and a suitable TYK2 JH2 binder, is referred to herein as “the Tracer”. A 3 fold, 10 point serial dilution of compound (Examples 1, 2, and 3) are prepared in 100% DMSO and 50 nL/well transferred to a Proxiplate-384F white plate (PerkinElmer 6008280) using acoustic liquid handling. Control wells used to determine percent inhibition contained 100% DMSO (50 nL) and either assay buffer containing the Tracer (2.00 nM final concentration) (min, low FRET) or diluted TYK2-JH2 enzyme (0.200 nM final concentration) and the Tracer (2.00 nM final concentration) (max, high FRET).
5.0 μL of His-tagged TYK2-JH2 (0.402 nM) and LanthaScreen Eu-anti-HIS Ab (4.02 nM, LifeTech, PV5597) in assay buffer (50 mM HEPES […], 10 mM magnesium chloride, 1 mM ethylene glycol-bis(β-aminoethyl ether)-N,N,N′,N′-tetraacetic acid, 0.01% Brij-35 and Milli-Q) water is added to the Proxiplate-384 plate containing the 50 nL of diluted compound and control wells. 5.0 μL of the Tracer (2.00 nM final concentration) in assay buffer is added to the plate and allowed to equilibrate for 30 minutes at ambient temperature. After 30 minutes, the plate is counted on a PerkinElmer Envision with the following settings: Excitation (340 nm), Tracer Emission (665 nm) and LanthaScreen Eu-anti-His Antibody Emission (615 nm). The ratio of Tracer Emission (665 nm) over LanthaScreen Eu-anti-His Antibody Emission (615 nm) is determined. Percent inhibition of ratio at each inhibitor concentration is calculated using the max and min control wells and fit to the four parameter nonlinear logistic equation in GeneData Screener® to give an IC50 for the compounds tested.
(TR-FRET usually uses a lanthanide donor and a delayed reading to cut background.)

Assay [2] deals with IL-23 signaling (STAT3 phosphorylation) in Kit225 cells. Kind of assay: IL23 pSTAT3 AlphaLISA Assay. The assay is classed as cell-based. Conditions: 0.5 h, 1 hour preincubation, IL-23 25 ng/mL for 30 minutes, in presence of IL-2, relative IC50, geometric mean (SEM), read-out: IL-23 inh IC50. As to the method:
IL-2-dependent Kit225 cells (University of Texas MD Anderson Cancer Center) expressing endogenous IL-23 receptors are stably transduced with the Lenti STAT3 Reporter linked to firefly luciferase (SABiosciences CLS-6028L). These cells are used to monitor TYK2 activity by quantifying gene expression caused by STAT3 phosporylation following induction by IL-23 in the presence of IL-2 using AlphaLISA technology (TGR Biosciences ALSU-TST3-A50K). The cells are grown in RPMI 1640 (Gibco 22400) supplemented with 10% FBS (Invitrogen 10082), 1× Pen/Strep (Gibco 15140-122), 200 ng/ml Puromycin (Sigma P9620), and fresh 10 ng/ml recombinant human IL-2 (R&D Systems 202-IL-50).
For assay preparation, cells are dispensed into Biocoat black poly-d-lysine coated clear bottom 384-well plates (Becton Dickinson Bio-Coat 35-4640) in DMEM (Sigma D5796) at 300,000 cells/well and allowed to incubate overnight at 37° C. Compounds solubilized in DMSO are serially diluted 1:3 to produce a 10-point concentration response curve (final DMSO=0.1%). Cells are pre-incubated with Example 1 for 1 hour at 37° C., then stimulated with IL-23 (25 ng/mL final) for 30 minutes. After centrifugation at 2000 rpm for 10 minutes, cell pellets are lysed with a mixture of 1:1 lysis buffer (TGR Biosciences) and Halt Protease & Phosphatase inhibitor cocktail (Thermo Scientific 1861281) for 30 minutes. The AlphaLISA reaction is performed following the vendor's recommended protocol, and the luciferase levels are measured using an Envision plate reader (Perkin Elmer). The relative IC50 is calculated using a 4-parameter nonlinear logistic equation (GeneData Screener 13.0.5) to give an IC50 for the compounds tested expressed as GeoMetric means with the standard error of the mean (SEM).
(In general: In Alpha technology, singlet oxygen from a donor bead excites a nearby acceptor bead.)

Assay [3] has as its system IFNα signaling through pSTAT1 in TF1 cells. The assay is described as follows: Inhibition of IFNα signaling through pSTAT1 in TF1 cells. In kind it is cell-based. Conditions: Homo sapiens, TF-1, 1 hour preincubation, 10 ng/mL IFNα2 for 20 minutes, p-Stat1 (Tyr701) AlphaLISA, geometric mean (SEM), read-out: IFNα inh IC50. As to the method: TF1 cells (ATCC, CL-2003) are grown in RPMI 1640 (GIBCO) supplemented with 10% dialyzed FBS, 0.1 mg/mL Ampicillin and 2 ng/mL granulocyte macrophage colony stimulating factor. TF1 cells (100 K per well) are seeded in a 96-well poly-D-lysine coated plates in serum-free DMEM and incubated overnight at 37° C. under 5% CO2. Example 1 is serially diluted in DMSO, added to the cells, and incubated at 37° C. for 1 hour. Cells are then stimulated with 10 ng/mL IFNα2 at 37° C. for 20 minutes. After removing the medium, the cells are lysed in buffer containing Halt protease and phosphatase inhibitor cocktail (Thermo Scientific #78441) at ambient temperature for 30 minutes. The amount of p-Stat1 (Tyr701) is quantified as light emission at 615 nm using the AlphaLISA SureFire Ultra p-Stat1 (Tyr701) assay kit (Perkin Elmer #ALSU-PST1-A50K) following the vendor's recommended protocol. Percent inhibition at each inhibitor concentration is calculated and fit to the four parameter nonlinear logistic equation using Genedata Screener© to give an IC50 for the compounds tested expressed as GeoMetric means with the standard error of the mean (SEM).

T1 sequence (P29597 589-875 limits assumed): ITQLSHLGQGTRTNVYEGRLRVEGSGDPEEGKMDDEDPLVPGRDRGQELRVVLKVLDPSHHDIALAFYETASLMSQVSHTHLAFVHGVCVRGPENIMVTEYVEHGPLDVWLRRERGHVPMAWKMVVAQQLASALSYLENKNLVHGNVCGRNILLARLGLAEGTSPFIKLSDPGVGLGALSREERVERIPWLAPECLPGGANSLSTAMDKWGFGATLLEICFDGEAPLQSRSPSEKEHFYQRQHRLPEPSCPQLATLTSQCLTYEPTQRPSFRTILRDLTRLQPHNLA

For orientation: IC50 means the concentration that inhibits the measured activity by half. Consider `CNc1cc(Nc2cccn(-c3cccc(C)n3)c2=O)nc2c(C(=O)N[C@@H]3CCN(C)C3=O)cnn12` [Example 2, 7-(Methylamino)-N-[(3R)-1-methyl-2-oxo-pyrrolidin-3-yl]-5-[[1-(6-methyl-2-pyridyl)-2-oxo-3-pyridyl]amino]pyrazolo[1,5-a]pyrimidine-3-carboxamide], for which the half-maximal inhibitory concentration (IC50) is less than 0.000254 µM in assay [1], 0.101 µM in assay [2] and 0.206 µM in assay [3].

As for `CNc1cc(Nc2cccn(-c3ccccn3)c2=O)nc2c(C(=O)N[C@@H]3CCN(C)C3=O)cnn12` [Example 3, 7-(Methylamino)-N-[(3R)-1-methyl-2-oxo-pyrrolidin-3-yl]-5-[[2-oxo-1-(2-pyridyl)-3-pyridyl]amino]pyrazolo[1,5-a]pyrimidine-3-carboxamide], the half-inhibitory concentration (IC50) in assay [1] is less than 0.000254 µM; in assay [2], 0.101 µM; in assay [3], 0.106 µM.

For the compound `CNc1cc(Nc2cccn(-c3ccc(C)cn3)c2=O)nc2c(C(=O)N[C@@H]3CCN(C)C3=O)cnn12` [Example 1, 7-(Methylamino)-N-[(3R)-1-methyl-2-oxo-pyrrolidin-3-yl]-5-[[1-(5-methyl-2-pyridyl)-2-oxo-3-pyridyl]amino]pyrazolo[1,5-a]pyrimidine-3-carboxamide], the half-maximal inhibitory concentration (IC50) in assay [1] was less than 0.000254 µM; in assay [2], 0.065 µM; in assay [3], 0.112 µM.
